Source: patent US20260022143A1, “Cyclic Peptide Inhibitors of IL-23” (JANSSEN PHARMACEUTICA NV, priority 2022, published 2026)
Where two headings read alike, the source gives them in different places. Positions of bridges follow the written chain, without caps; N, C: chain ends. Non-standard residues stand in square brackets, D forms with d. Residues, ends and D or L forms follow the SMILES beside them. *: point of attachment. Trp(7-Me) = Cc1cccc2c(C[C@H](N)C(=O)O)c[nH]c12; 2Nal = N[C@@H](Cc1ccc2ccccc2c1)C(=O)O; 3Pal = N[C@@H](Cc1cccnc1)C(=O)O; Lys(Me) = CNCCCC[C@H](N)C(=O)O; Pen = CC(C)(S)[C@H](N)C(=O)O; Thp = NC1(C(=O)O)CCOCC1; Sar = CNCC(=O)O; X2 = CNCC*

Experiments:
[1] = molecular target: T1, IL-23R (Homo sapiens, UniProt Q5VWK5); experiment: IL23R Reporter Assay; type: cell-based; details: HEK293 cells containing IL-23R, IL-12RP1 and STAT-inducible firefly luciferase reporter; 10 ng/mL IL-23 (EC90); 5 h at 37° C.; read-out: IL23R Reporter Assay
T1 construct: host or cells: HEK293
T1 sequence (Q5VWK5 24-629): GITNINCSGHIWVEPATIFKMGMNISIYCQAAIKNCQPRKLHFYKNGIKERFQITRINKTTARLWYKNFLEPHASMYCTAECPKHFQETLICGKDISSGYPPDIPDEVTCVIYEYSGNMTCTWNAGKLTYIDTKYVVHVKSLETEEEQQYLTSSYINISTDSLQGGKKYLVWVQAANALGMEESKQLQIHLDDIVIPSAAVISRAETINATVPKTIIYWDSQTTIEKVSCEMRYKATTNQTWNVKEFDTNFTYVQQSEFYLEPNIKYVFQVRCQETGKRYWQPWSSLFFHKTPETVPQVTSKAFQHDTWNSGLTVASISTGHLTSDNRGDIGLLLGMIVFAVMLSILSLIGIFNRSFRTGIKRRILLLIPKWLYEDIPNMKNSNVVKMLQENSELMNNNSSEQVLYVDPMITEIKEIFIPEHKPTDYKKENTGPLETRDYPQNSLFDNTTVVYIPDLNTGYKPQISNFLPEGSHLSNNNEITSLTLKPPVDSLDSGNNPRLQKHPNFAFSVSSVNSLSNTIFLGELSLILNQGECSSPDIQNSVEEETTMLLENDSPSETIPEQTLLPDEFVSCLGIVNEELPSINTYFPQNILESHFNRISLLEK

[2] = Exposed Polar Surface Area (EPSA); type: physicochemical; details: SFC on Chirex 3014 column, sample 1 mM DMSO stock
Outline: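 Chirex 3014 column, 35 °C, 4 mL/min; CO2/MeOH + 20 mM NH4 formate, 5→60% modifier at 20%/min. UV/MS detection. EPSA (Å^2) from retention time vs 8-standard calibration line; duplicates; 1 mM DMSO stock injected undiluted.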

| Structure (SMILES) | IC50 [1] [nM] | EPSA ([2]; read-out: EPSA) [A^2] | EPSA [2] [Å^2] | EPSA ([2]; listed as 2) [Å^2] |
| --- | --- | --- | --- | --- |
| CC(=O)N[C@@H]1C(=O)N[C@@H](CC(=O)N(C)C)C(=O)N[C@@H]([C@@H](C)O)C(=O)N[C@@H](Cc2c[nH]c3c(C)cccc23)C(=O)N[C@H](COCCOCC[N+](C)(C)C)C(=O)N[C@H](C(=O)N[C@@H](Cc2ccc(OCCOCCOCC[N+](C)(C)C)cc2)C(=O)N[C@@H](Cc2ccc3ccccc3c2)C(=O)NC2(C(=O)N[C@@H](COCCOCC[N+](C)(C)C)C(=O)N[C@@H](CC(N)=O)C(=O)N[C@@H](Cc3cccnc3)C(=O)N(C)CC(=O)N(C)C)CCOCC2)C(C)(C)SSC1(C)C (relative stereo) [compound 255, MeCO-Pen(3)-N(N(Me)2)-T-7MeW-APEG2Ser(R*)-Pen(3)-APEG3F-2Nal-THP-APEG2Ser(S*)-N-3Pya-Sar-CON(Me)2] | 22 | 141 | – | – |
| CC(=O)N[C@@H]1C(=O)N[C@@H](CC(=O)N(C)C)C(=O)N[C@@H]([C@@H](C)O)C(=O)N[C@@H](Cc2c[nH]c3c(C)cccc23)C(=O)N[C@H](COCCOCC[N+](C)(C)C)C(=O)N[C@H](C(=O)N[C@@H](Cc2ccc(OCCOCCOCC[N+](C)(C)C)cc2)C(=O)N[C@@H](Cc2ccc3ccccc3c2)C(=O)NC2(C(=O)N[C@@H](CCCCN(C)C(C)=O)C(=O)N[C@@H](CC(N)=O)C(=O)N[C@@H](Cc3cccnc3)C(=O)N(C)CC(=O)N(C)C)CCOCC2)C(C)(C)SSC1(C)C (relative stereo) [compound 268, MeCO-Pen(3)-N(N(Me)2)-T-7MeW-APEG2Ser(R*)-Pen(3)-APEG3F-2Nal-THP-K(NMeAc)-N-3Pya-Sar-CON(Me)2] | 110 | 148 | – | – |
| CC(=O)N[C@@H](COCCOCC[N+](C)(C)C)C(=O)N[C@@H]1C(=O)N[C@@H](CC(=O)N(C)C)C(=O)N[C@@H]([C@@H](C)O)C(=O)N[C@@H](Cc2c[nH]c3c(C)cccc23)C(=O)N[C@@H](CCCCN(C)C(C)=O)C(=O)N[C@H](C(=O)N[C@@H](Cc2ccc(OCCOCCOCC[N+](C)(C)C)cc2)C(=O)N[C@@H](Cc2ccc3ccccc3c2)C(=O)NC2(C(=O)N[C@@H](CCCCN(C)C(C)=O)C(=O)N[C@@H](CC(N)=O)C(=O)N[C@@H](Cc3cccnc3)C(=O)N(C)CC(=O)N(C)C)CCOCC2)C(C)(C)SSC1(C)C (relative stereo) [compound 318, MeCO-APEG2Ser(S*)-Pen(3)-N(N(Me)2)-T-7MeW-K(NMeAc)-Pen(3)-APEG3F-2Nal-THP-K(NMeAc)-N-3Pya-Sar-CON(Me)2] | 0.89 | 151 | – | – |
| CC(=O)N(C)CCCC[C@@H]1NC(=O)[C@H](Cc2c[nH]c3c(C)cccc23)NC(=O)[C@H]([C@@H](C)O)NC(=O)[C@H](CC(=O)N(C)C)NC(=O)[C@@H](NC(=O)CCOCCOCC[N+](C)(C)C)C(C)(C)SSC(C)(C)[C@@H](C(=O)N[C@@H](Cc2ccc(OCCN)cc2)C(=O)N[C@@H](Cc2ccc3ccccc3c2)C(=O)NC2(C(=O)N[C@@H](CCN(C)C(C)=O)C(=O)N[C@@H](CC(N)=O)C(=O)N[C@@H](Cc3cccnc3)C(=O)N(C)CC(=O)N(C)C)CCC(F)(F)C2)NC1=O (single isomer, unassigned) [compound 179, cPEG3aCO-Pen(3)-N(N(Me)2)-T-7MeW-K(NMeAc)-Pen(3)-AEF-2Nal-diFCpx-Dab(NMeAc)-N-3Pya-Sar-CON(Me)2] | 3 | 147 | – | – |
| CNCCOc1ccc(C[C@H](NC(=O)[C@H]2NC(=O)[C@H](CCCCN(C)C(C)=O)NC(=O)[C@H](Cc3c[nH]c4c(C)cccc34)NC(=O)[C@H]([C@@H](C)O)NC(=O)[C@H](CC(=O)NC)NC(=O)[C@@H](NC(C)=O)C(C)(C)SSC2(C)C)C(=O)N[C@@H](Cc2ccc3ccccc3c2)C(=O)NC2(C(=O)N[C@@H](CCCCN(C)C(C)=O)C(=O)N[C@@H](CC(N)=O)C(=O)N[C@@H](Cc3cccnc3)C(=O)N(C)CC(=O)NC)CCOCC2)cc1 [SEQ ID 67] (Ac-[Pen]D(NHMe)T[Trp(7-Me)][Lys(Me)](Ac)[Pen]Y(X2)[2Nal][Thp][Lys(Me)](Ac)N[3Pal][Sar]-NHMe; disulfide 1-6 (inferred)) | 1050 | 150 | – | 184 |

The remaining lines, values ahead:

| IC50 [1] [nM] | EPSA ([2]; read-out: EPSA) [A^2] | EPSA [2] [Å^2] | EPSA ([2]; listed as 2) [Å^2] | Structure (SMILES) |
| --- | --- | --- | --- | --- |
| 0.83 | 154 | – | – | CC(=O)NC(COCCOCC[N+](C)(C)C)C(=O)N[C@@H]1C(=O)N[C@@H](CC(=O)N(C)C)C(=O)N[C@@H]([C@@H](C)O)C(=O)N[C@@H](Cc2c[nH]c3c(C)cccc23)C(=O)N[C@@H](CCCCN(C)C(C)=O)C(=O)N[C@H](C(=O)N[C@@H](Cc2ccc(OCCn3cc(CCCC[N+](C)(C)C)nn3)cc2)C(=O)N[C@@H](Cc2ccc3ccccc3c2)C(=O)NC2(C(=O)N[C@@H](CCCCN(C)C(C)=O)C(=O)N[C@@H](CC(N)=O)C(=O)N[C@@H](Cc3cccnc3)C(=O)N(C)CC(=O)N(C)C)CCOCC2)C(C)(C)SSC1(C)C (mixture of isomers) [compound 545, MeCO-APEG2Ser(RS)-Pen(3)-N(N(Me)2)-T-7MeW-K(NMeAc)-Pen(3)-Y(OTzlTMA4)-2Nal-THP-K(NMeAc)-N-3Pya-Sar-CON(Me)2] |
| 4.5 | 185 | – | – | CC(=O)NCCCC[C@@H]1NC(=O)[C@H](Cc2c[nH]c3c(C)cccc23)NC(=O)[C@H]([C@@H](C)O)NC(=O)[C@H](CC(N)=O)NC(=O)[C@@H](NC(=O)C(COCCOCC[N+](C)(C)C)NC(C)=O)C(C)(C)SSC(C)(C)[C@@H](C(=O)N[C@@H](Cc2ccc(OCCN)cc2)C(=O)N[C@@H](Cc2ccc3ccccc3c2)C(=O)NC2(C(=O)N[C@@H](CCC(=O)O)C(=O)N[C@@H](CC(N)=O)C(=O)N[C@@H](Cc3cccnc3)C(=O)N(C)CC(N)=O)CCOCC2)NC1=O (mixture of isomers) [compound 553, MeCO-APEG2Ser(RS)-Pen(3)-N-T-7MeW-K(Ac)-Pen(3)-AEF-2Nal-THP-E-N-3Pya-Sar-CONH2] |
| 3 | 171 | – | – | CC(=O)NCCCC[C@H](NC(=O)C1(NC(=O)[C@H](Cc2ccc3ccccc3c2)NC(=O)[C@H](Cc2ccc(OCCN)cc2)NC(=O)[C@H]2NC(=O)[C@H](CCCCN(C)C(C)=O)NC(=O)[C@H](Cc3c[nH]c4c(C)cccc34)NC(=O)[C@H]([C@@H](C)O)NC(=O)[C@H](CC(N)=O)NC(=O)[C@@H](NC(=O)C(COCCOCC[N+](C)(C)C)NC(C)=O)C(C)(C)SSC2(C)C)CCOCC1)C(=O)N[C@@H](CC(N)=O)C(=O)N[C@@H](Cc1cccnc1)C(=O)N(C)CC(N)=O (mixture of isomers) [compound 554, MeCO-APEG2Ser(RS)-Pen(3)-N-T-7MeW-K(Ac)-Pen(3)-AEF-2Nal-THP-K(Ac)-N-3Pya-Sar-CONH2] |
| 5.9 | 163 | – | – | CC(=O)NCCCC[C@@H]1NC(=O)[C@H](Cc2c[nH]c3c(C)cccc23)NC(=O)[C@H]([C@@H](C)O)NC(=O)[C@H](CC(N)=O)NC(=O)[C@@H](NC(=O)C(COCCOCC[N+](C)(C)C)NC(C)=O)C(C)(C)SSC(C)(C)[C@@H](C(=O)N[C@@H](Cc2ccc(OCCCCC[N+](C)(C)C)cc2)C(=O)N[C@@H](Cc2ccc3ccccc3c2)C(=O)NC2(C(=O)N[C@@H](CCCCNC(C)=O)C(=O)N[C@@H](CC(N)=O)C(=O)N[C@@H](Cc3cccnc3)C(=O)N(C)CC(N)=O)CCOCC2)NC1=O (mixture of isomers) [compound 556, MeCO-APEG2Ser(RS)-Pen(3)-N-T-7MeW-K(Ac)-Pen(3)-TMAPF-2Nal-THP-K(Ac)-N-3Pya-Sar-CONH2] |
| 1.8 | 151 | – | – | CC(=O)NC(COCCOCC[N+](C)(C)C)C(=O)N[C@@H]1C(=O)N[C@@H](CC(=O)N(C)C)C(=O)N[C@@H]([C@@H](C)O)C(=O)N[C@@H](Cc2c[nH]c3c(C)cccc23)C(=O)N[C@@H](CCCCN(C)C(C)=O)C(=O)N[C@H](C(=O)N[C@@H](Cc2ccc(OCCOCCOCC[N+](C)(C)C)cc2)C(=O)N[C@@H](Cc2ccc3ccccc3c2)C(=O)NC2(C(=O)N[C@@H](CCCCN(C)C(C)=O)C(=O)N[C@@H](CC(N)=O)C(=O)N[C@@H](Cc3cccnc3)C(=O)N(C)CC(=O)N(C)C)CCOCC2)C(C)(C)SSC1(C)C (relative stereo) [compound 319, MeCO-APEG2Ser(R*)-Pen(3)-N(N(Me)2)-T-7MeW-K(NMeAc)-Pen(3)-APEG3F-2Nal-THP-K(NMeAc)-N-3Pya-Sar-CON(Me)2] |
| 3.7 | – | 165.96 | – | CC(=O)NCCCC[C@@H]1NC(=O)[C@H](Cc2c[nH]c3c(C)cccc23)NC(=O)[C@H]([C@@H](C)O)NC(=O)[C@H](CC(N)=O)NC(=O)[C@@H](NC(C)=O)C(C)(C)SSC(C)(C)[C@@H](C(=O)N[C@@H](Cc2ccc(OCC3CCC([N+](C)(C)C)CC3)cc2)C(=O)N[C@@H](Cc2ccc3ccccc3c2)C(=O)NC2(C(=O)N[C@@H](CCCCNC(C)=O)C(=O)N[C@@H](CC(N)=O)C(=O)N[C@@H](Cc3cccnc3)C(=O)N(C)CC(N)=O)CCOCC2)NC1=O (single isomer, unassigned) [compound 531, MeCO-Pen(3)-N-T-7MeW-K(Ac)-Pen(3)-ACHMF(R*, S*)-2Nal-THP-K(Ac)-N-3Pya-Sar-CONH2] |
